{"source": "patent US6809084B1", "about": "“Compositions containing polysaccharides from phellinus linteus and methods for treating diabetes mellitus using same” (Korea Research Institute of Bioscience and Biotechnology, priority 2000, dated 2004)", "tested_on": "ICR mouse", "assay": "Streptozotocin-induced diabetes in ICR mice", "format": "in vivo", "conditions": "60 mg/kg three times i.p., normal ICR mouse 200 mg/dl", "description": "FIG. 7 illustrates the effect of PL on experimental group with streptozotocin-induced diabetes. Blood glucose values were measured with Accutrend sensor system (Boehringer Mannheim, Germany).\nStreptozotocin, which can induce Insulin-dependent diabetes mellitus, destroys selectively pancreatic beta cells, and diabetes mellitus induced :by streptozotocin is similar with diabetes naturally occurring in NOD mice. […] ICR mouse received 60 mg/kg of streptozotocin three times with intraperitoneal injection. Streptozotocin was used in solution of citrate buffer (pH 4.2, 4° C.). The blood glucose level of ICR mouse treated with streptozotocin was 450 mg/dl, whereas that of normal ICR mouse without streptozotocin was 200 mg/dl (FIG. 7).", "data": [{"smiles": "CN(N=O)C(=O)N[C@H]1C(O)O[C@H](CO)[C@@H](O)[C@@H]1O", "note": "(mixture of isomers) [streptozotocin]", "values": [{"measurement": "blood glucose level", "value": 450, "unit": "mg/dL"}]}]}
